Test system: 485368-065-R3-J5-PDC spheroids with HUVEC/MSC, viability
Assay: Anticancer human tumor 485368-065-R3-J5-PDC patient-derived pancreatic carcinoma cell line growth inhibition [RAS]
Conditions: for IC50: curve of first compound; for viability, T/C: stronger effect = lower value
In short: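 Agents were tested in combination matrices in half-log decrements from a top concentration at or near clinical Cmax (10 microM if undetermined). Targets were multi-cell spheroids of tumour lines plus HUVEC and MSC stromal cells.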

[1] = second compound 0.0316 µM, first compound 0.0316 µM
[2] = second compound 0.0316 µM, first compound 0.1 µM
[3] = second compound 0.0316 µM, first compound 0.316 µM
[4] = second compound 0.0316 µM, first compound 1 µM
[5] = second compound 0.0316 µM, first compound 3.16 µM
[6] = second compound 0.0316 µM, first compound 10 µM
[7] = second compound 0.1 µM, first compound 0.0316 µM
[8] = second compound 0.1 µM, first compound 0.1 µM
[9] = second compound 0.1 µM, first compound 0.316 µM
[10] = second compound 0.1 µM, first compound 1 µM
[11] = second compound 0.1 µM, first compound 3.16 µM
[12] = second compound 0.1 µM, first compound 10 µM
[13] = second compound 0.316 µM, first compound 0.0316 µM
[14] = second compound 0.316 µM, first compound 0.1 µM
[15] = second compound 0.316 µM, first compound 0.316 µM
[16] = second compound 0.316 µM, first compound 1 µM
[17] = second compound 0.316 µM, first compound 3.16 µM
[18] = second compound 0.316 µM, first compound 10 µM
[19] = second compound 1 µM, first compound 0.0316 µM
[20] = second compound 1 µM, first compound 0.1 µM
[21] = second compound 1 µM, first compound 0.316 µM
[22] = second compound 1 µM, first compound 1 µM
[23] = second compound 1 µM, first compound 3.16 µM
[24] = second compound 1 µM, first compound 10 µM
[25] = second compound 3.16 µM, first compound 0.0316 µM
[26] = second compound 3.16 µM, first compound 0.1 µM
[27] = second compound 3.16 µM, first compound 0.316 µM
[28] = second compound 3.16 µM, first compound 1 µM
[29] = second compound 3.16 µM, first compound 3.16 µM
[30] = second compound 3.16 µM, first compound 10 µM
[31] = second compound 10 µM, first compound 0.0316 µM
[32] = second compound 10 µM, first compound 0.1 µM
[33] = second compound 10 µM, first compound 0.316 µM
[34] = second compound 10 µM, first compound 1 µM
[35] = second compound 10 µM, first compound 3.16 µM
[36] = second compound 10 µM, first compound 10 µM
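Also: spheroids exposed to agents for seven days before readout.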

CCC(CC)c1cc(NC2CCC(N)C2)n2nccc2n1 (stereo not drawn) + C#Cc1c(F)ccc2cc(O)cc(-c3ncc4c(N5CC6CCC(C5)N6)nc(OCC56CCCN5CC(F)C6)nc4c3F)c12
IC50 (second compound 0.0316 µM): 2.03 µM
IC50 (second compound 0.1 µM): 1.94 µM
IC50 (second compound 0.316 µM): 2.01 µM
IC50 (second compound 1 µM): 1.98 µM
IC50 (second compound 3.16 µM): 1.83 µM
IC50 (second compound 10 µM): 1.25 µM
viability, T/C [1]: 108%
viability, T/C [2]: 116%
viability, T/C [3]: 110%
viability, T/C [4]: 147%
viability, T/C [5]: 4.74%
viability, T/C [6]: 7.01%
viability, T/C [7]: 107%
viability, T/C [8]: 95.8%
viability, T/C [9]: 109%
viability, T/C [10]: 129%
viability, T/C [11]: 4.21%
viability, T/C [12]: 7.06%
viability, T/C [13]: 99.4%
viability, T/C [14]: 105%
viability, T/C [15]: 114%
viability, T/C [16]: 152%
viability, T/C [17]: 5.79%
viability, T/C [18]: 7.25%
viability, T/C [19]: 91.1%
viability, T/C [20]: 109%
viability, T/C [21]: 121%
viability, T/C [22]: 138%
viability, T/C [23]: 4.74%
viability, T/C [24]: 6.22%
viability, T/C [25]: 86.7%
viability, T/C [26]: 83.8%
viability, T/C [27]: 96.9%
viability, T/C [28]: 128%
viability, T/C [29]: 4.66%
viability, T/C [30]: 6.53%
viability, T/C [31]: 47.2%
viability, T/C [32]: 42.1%
viability, T/C [33]: 61.7%
viability, T/C [34]: 93.3%
viability, T/C [35]: 3.14%
viability, T/C [36]: 6.12%

Cc1nc(N2CCC3(CC2)COC(C)C3N)c(CO)nc1Sc1ccnc(N)c1Cl (stereo not drawn) + C#Cc1c(F)ccc2cc(O)cc(-c3ncc4c(N5CC6CCC(C5)N6)nc(OCC56CCCN5CC(F)C6)nc4c3F)c12
IC50 (second compound 0.0316 µM): > 10 µM
IC50 (second compound 0.1 µM): > 10 µM
IC50 (second compound 0.316 µM): 1.91 µM
IC50 (second compound 1 µM): 0.821 µM
IC50 (second compound 3.16 µM): 0.106 µM
IC50 (second compound 10 µM): < 0.0316 µM
viability, T/C [1]: 98.3%
viability, T/C [2]: 88.5%
viability, T/C [3]: 87.3%
viability, T/C [4]: 75.1%
viability, T/C [5]: 60%
viability, T/C [6]: 58.8%
viability, T/C [7]: 110%
viability, T/C [8]: 92.3%
viability, T/C [9]: 74%
viability, T/C [10]: 62.7%
viability, T/C [11]: 63.6%
viability, T/C [12]: 51.8%
viability, T/C [13]: 101%
viability, T/C [14]: 89.6%
viability, T/C [15]: 78.5%
viability, T/C [16]: 52.4%
viability, T/C [17]: 47.5%
viability, T/C [18]: 44%
viability, T/C [19]: 91.5%
viability, T/C [20]: 77.2%
viability, T/C [21]: 56.7%
viability, T/C [22]: 47.6%
viability, T/C [23]: 42.2%
viability, T/C [24]: 30%
viability, T/C [25]: 65.9%
viability, T/C [26]: 49.7%
viability, T/C [27]: 39.1%
viability, T/C [28]: 31.9%
viability, T/C [29]: 24.7%
viability, T/C [30]: 21.6%
viability, T/C [31]: 36.3%
viability, T/C [32]: 29.7%
viability, T/C [33]: 24.3%
viability, T/C [34]: 19.9%
viability, T/C [35]: 19.7%
viability, T/C [36]: 12.8%

NC1c2ccccc2OC12CCN(c1cnc3c(N4CCCc5ncccc54)n[nH]c3n1)CC2 (stereo not drawn) + C#Cc1c(F)ccc2cc(O)cc(-c3ncc4c(N5CC6CCC(C5)N6)nc(OCC56CCCN5CC(F)C6)nc4c3F)c12
IC50 (second compound 0.0316 µM): > 10 µM
IC50 (second compound 0.1 µM): 2.38 µM
IC50 (second compound 0.316 µM): 1.02 µM
IC50 (second compound 1 µM): 0.117 µM
IC50 (second compound 3.16 µM): < 0.0316 µM
IC50 (second compound 10 µM): < 0.0316 µM
viability, T/C [1]: 82.1%
viability, T/C [2]: 79.2%
viability, T/C [3]: 70.9%
viability, T/C [4]: 66.3%
viability, T/C [5]: 72.1%
viability, T/C [6]: 55%
viability, T/C [7]: 76%
viability, T/C [8]: 72.9%
viability, T/C [9]: 61.7%
viability, T/C [10]: 60.7%
viability, T/C [11]: 44.2%
viability, T/C [12]: 43.9%
viability, T/C [13]: 69.9%
viability, T/C [14]: 61.6%
viability, T/C [15]: 58.6%
viability, T/C [16]: 54.4%
viability, T/C [17]: 35.5%
viability, T/C [18]: 28.8%
viability, T/C [19]: 60.3%
viability, T/C [20]: 47.4%
viability, T/C [21]: 43.4%
viability, T/C [22]: 37.9%
viability, T/C [23]: 28.9%
viability, T/C [24]: 18.9%
viability, T/C [25]: 40%
viability, T/C [26]: 33.7%
viability, T/C [27]: 27.5%
viability, T/C [28]: 23.7%
viability, T/C [29]: 17.8%
viability, T/C [30]: 17.5%
viability, T/C [31]: 23.3%
viability, T/C [32]: 20.3%
viability, T/C [33]: 17.9%
viability, T/C [34]: 14.2%
viability, T/C [35]: 13%
viability, T/C [36]: 12.8%

Nc1ccn(C2OC(CO)C(O)C2(F)F)c(=O)n1 (stereo not drawn) + C#Cc1c(F)ccc2cc(O)cc(-c3ncc4c(N5CC6CCC(C5)N6)nc(OCC56CCCN5CC(F)C6)nc4c3F)c12
IC50 (second compound 0.0316 µM): 0.00636 µM
IC50 (second compound 0.1 µM): 0.0063 µM
IC50 (second compound 0.316 µM): 0.00651 µM
IC50 (second compound 1 µM): 0.00609 µM
IC50 (second compound 3.16 µM): 0.00596 µM
IC50 (second compound 10 µM): < 0.00316 µM
viability, T/C (second compound 0.0316 µM, first compound 0.00316 µM): 98.4%
viability, T/C (second compound 0.0316 µM, first compound 0.01 µM): 18.8%
viability, T/C [1]: 8.96%
viability, T/C [2]: 11.8%
viability, T/C [3]: 11.1%
viability, T/C [4]: 14.4%
viability, T/C (second compound 0.1 µM, first compound 0.00316 µM): 93.6%
viability, T/C (second compound 0.1 µM, first compound 0.01 µM): 20.7%
viability, T/C [7]: 10.9%
viability, T/C [8]: 9.95%
viability, T/C [9]: 11.6%
viability, T/C [10]: 12.8%
viability, T/C (second compound 0.316 µM, first compound 0.00316 µM): 94.5%
viability, T/C (second compound 0.316 µM, first compound 0.01 µM): 23.5%
viability, T/C [13]: 10.9%
viability, T/C [14]: 10.3%
viability, T/C [15]: 11.8%
viability, T/C [16]: 11.8%
viability, T/C (second compound 1 µM, first compound 0.00316 µM): 90.4%
viability, T/C (second compound 1 µM, first compound 0.01 µM): 19.5%
viability, T/C [19]: 12.1%
viability, T/C [20]: 8.97%
viability, T/C [21]: 10.8%
viability, T/C [22]: 11%
viability, T/C (second compound 3.16 µM, first compound 0.00316 µM): 89%
viability, T/C (second compound 3.16 µM, first compound 0.01 µM): 18.3%
viability, T/C [25]: 9.24%
viability, T/C [26]: 9.65%
viability, T/C [27]: 9.37%
viability, T/C [28]: 9.7%
viability, T/C (second compound 10 µM, first compound 0.00316 µM): 37.7%
viability, T/C (second compound 10 µM, first compound 0.01 µM): 20.8%
viability, T/C [31]: 8.12%
viability, T/C [32]: 7.5%
viability, T/C [33]: 8.95%
viability, T/C [34]: 9.6%
